The values that follow come from US8420644B2, “Pharmaceutical composition intended for the prevention or for the treatment of cerebral oedemas” (Biocodex, priority 2005, dated 2013).

Where two headings read alike, the source gives them in different places.

Data set [1] relates to cerebral edema induced triethyltin (TET) chloride. Particulars: administered during the intoxication, measured after 5 days (Linee et al., 1984); cited from earlier work.
Data set [2] deals with cerebral oedema induced by triethyltin (TET). The note with it: rat, in vivo.
For data set [3], the system named is ambulatory activity disrupted by triethyltin (TET). Particulars: for Ambulatory activities: no TET.
Data set [4] is classed as in vivo, rat.
Where [5] appears, read: moclobemide 2 × 50 mg/kg/day + TET 3 mg/kg/day, day 4.
The mark [6] stands for this setting: moclobemide 2 × 50 mg/kg/day + TET 3 mg/kg/day, day −3, before any treatment.
The mark [7] stands for this setting: moclobemide 2 × 50 mg/kg/day, TET 0, day 4.
[8] abbreviates: moclobemide 2 × 50 mg/kg/day, TET 0, day −3, before any treatment.
Setting [9] is: moclobemide 2×100 mg/kg/day + TET.
The mark [10] stands for this setting: moclobemide 2 × 100 mg/kg/day + TET 3 mg/kg/day, day 4.
Setting [11] is: moclobemide 2 × 100 mg/kg/day + TET 3 mg/kg/day, day −3, before any treatment.

With (−)eburnamonine, the “Activity in the preventive protocol of intoxication with tin” value (from here on “Activity in the preventive protocol”) in data set [1] is given as “active”.
For `CC[C@]12CCCN3CCc4c(n(c5ccccc45)[C@@](O)(C(=O)OC)C1)[C@@H]32` [vincamine], the “Activity in the preventive protocol” value in data set [1] is given as “active”.
Turning to dihydroergotoxin, the “Activity in the preventive protocol” value in data set [1] is “active”.
Turning to moclobemide, the results for the Variation in percentage in data set [2] (50 mg/kg/day) and in data set [2] (100 mg/kg/day) were −0.01% and −0.14%, respectively. The “Effect of TET on the ambulatory activities” value in data set [3] (moclobemide 2×50 mg/kg/day + TET) and in data set [3] (setting [9]) was “does not suppress the effect of TET” each time. For the same molecule, the “Horizontal ambulatory activity (means ± esm)” value is reported as 474 ± 70 arbitrary unit in data set [3] (setting [5]); 2319 ± 248 arbitrary unit in data set [3] (setting [6]); 1483 ± 163 arbitrary unit in data set [3] (setting [7]); 2754 ± 415 arbitrary unit in data set [3] (setting [8]); 497 ± 139 arbitrary unit in data set [3] (setting [10]); 2549 ± 221 arbitrary unit in data set [3] (setting [11]). The “Total ambulatory activity (means ± esm)” value in data set [3] (setting [5]) is reported as 844 ± 88 arbitrary unit; in data set [3] (setting [6]) it was 3001 ± 314 arbitrary unit; in data set [3] (setting [7]) it was 2000 ± 224 arbitrary unit; in data set [3] (setting [8]), 3840 ± 323 arbitrary unit; in data set [3] (setting [11]), 3332 ± 235 arbitrary unit. In addition, the “Vertical ambulatory activity (means ± esm)” value in data set [3] (setting [6]) is recorded as 279 ± 37 arbitrary unit; in data set [3] (setting [11]) it was 279 ± 27 arbitrary unit. For the same molecule, the Ambulatory activities result in data set [3] (moclobemide 2×50 mg/kg/day for 5 days) was “does not lead to any significant effect on the ambulatory activities”; in data set [3] (moclobemide 2×100 mg/kg/day, day 4), “significantly decreases the ambulatory activities at day 4”. For the same molecule, the “Body weight (grammes ± esm)” value was 245 ± 3 grammes in data set [4] (moclobemide 2 × 50 mg/kg/day + TET 3 mg/kg/day, day 0); 246 ± 3 grammes in data set [4] (moclobemide 2 × 50 mg/kg/day + TET 3 mg/kg/day, day 1); 249 ± 3 grammes in data set [4] (moclobemide 2 × 50 mg/kg/day + TET 3 mg/kg/day, day 2); 253 ± 4 grammes in data set [4] (moclobemide 2 × 50 mg/kg/day + TET 3 mg/kg/day, day 3); 216 ± 3 grammes in data set [4] (moclobemide 2 × 50 mg/kg/day + TET 3 mg/kg/day, day −3); 243 ± 4 grammes in data set [4] (moclobemide 2 × 100 mg/kg/day + TET 3 mg/kg/day, day 0). The “Body weight (grammes ± esm)” value in data set [4] (moclobemide 2 × 100 mg/kg/day + TET 3 mg/kg/day, day 2) was determined as 244 ± 4 grammes; in data set [4] (moclobemide 2 × 100 mg/kg/day + TET 3 mg/kg/day, day 3), 244 ± 4 grammes; in data set [4] (setting [10]), 241 ± 5 grammes; in data set [4] (moclobemide 2 × 100 mg/kg/day + TET 3 mg/kg/day, day −3), 203 ± 5 grammes. In addition, the “Drop in weight between day 3 and day 4 induced by the TET” value in data set [4] (setting [9]) is reported as “prevents the drop in weight induced by the TET”.
